# Experimental data as given in ChEMBL document CHEMBL3046029, “Green approach towards the facile synthesis of dihydropyrano(c)chromene and pyrano[2,3-d]pyrimidine derivatives and their biological evaluation” (2013).
# The source made the active and inactive calls. The rule behind the calls is not given here.
# Experiments:
# Salmonella typhi [1] = assay: Antibacterial activity against Salmonella enterica subsp. enterica serovar Typhi ATCC 19430 assessed as growth inhibition after 24 hr by disk diffusion method; type: functional
# PC-3 = assay: Anticancer activity against Homo sapiens (human) PC3 cells at 0.1 to 100 uM by SRB assay; type: functional, cell-based
# OVCAR-3 = assay: Anticancer activity against Homo sapiens (human) OVCAR3 cells at 0.1 to 100 uM by SRB assay; type: functional, cell-based
# MDA-MB-435 = assay: Anticancer activity against Homo sapiens (human) MDA-MB-435 cells at 0.1 to 100 uM by SRB assay; type: functional, cell-based
# Pseudomonas aeruginosa = assay: Antibacterial activity against Pseudomonas aeruginosa ATCC 27853 assessed as diameter of growth inhibition zone at 20 mg/ml after 24 hr by disk diffusion method; type: functional; conditions: ATCC 27853, 24 h, read-out: DIZ
# Escherichia coli = assay: Antibacterial activity against Escherichia coli ATCC 25922 assessed as diameter of growth inhibition zone at 20 mg/ml after 24 hr by disk diffusion method; type: functional; conditions: ATCC 25922, 24 h, read-out: DIZ
# Priestia megaterium = assay: Antibacterial activity against Bacillus megaterium ATCC 12872 assessed as diameter of growth inhibition zone at 20 mg/ml after 24 hr by disk diffusion method; type: functional; conditions: ATCC 12872, 24 h, read-out: DIZ
# Klebsiella pneumoniae = assay: Antibacterial activity against Klebsiella pneumoniae ATCC 15380 assessed as diameter of growth inhibition zone at 20 mg/ml after 24 hr by disk diffusion method; type: functional; conditions: ATCC 15380, 24 h, read-out: DIZ
# Citrobacter freundii = assay: Antibacterial activity against Citrobacter freundii ATCC 8090 = MTCC 1658 assessed as diameter of growth inhibition zone at 20 mg/ml after 24 hr by disk diffusion method; type: functional; conditions: ATCC 8090 = MTCC 1658, 24 h, read-out: DIZ
# Salmonella typhi [2] = assay: Antibacterial activity against Salmonella enterica subsp. enterica serovar Typhi ATCC 19430 assessed as diameter of growth inhibition zone at 20 mg/ml after 24 hr by disk diffusion method; type: functional; conditions: ATCC 19430, 24 h, read-out: DIZ
Compound,MIC (Salmonella typhi [1]) [µg],Activity (PC-3),Activity (OVCAR-3),Activity (MDA-MB-435),zone of inhibition at 20000 µg/mL (Pseudomonas aeruginosa) [mm],zone of inhibition at 20000 µg/mL (Escherichia coli) [mm],zone of inhibition at 20000 µg/mL (Priestia megaterium) [mm],zone of inhibition at 20000 µg/mL (Klebsiella pneumoniae) [mm],zone of inhibition at 20000 µg/mL (Citrobacter freundii) [mm],zone of inhibition at 20000 µg/mL (Salmonella typhi [2]) [mm]
CC1(C)CC(=O)C2=C(C1)OC(N)=C(C#N)C2c1ccco1 (stereo not drawn),10,inactive,inactive,inactive,14,16,12,15,10,15
N#CC1=C(N)Oc2[nH]c(=O)[nH]c(=O)c2C1c1ccc[nH]1 (stereo not drawn),10,,,,18,14,12,20,12,22
Cc1ccsc1C1C(C#N)=C(N)Oc2[nH]c(=O)[nH]c(=O)c21 (stereo not drawn),10,,,,20,16,10,22,12,21
Cc1ccc(C2C(C#N)=C(N)Oc3[nH]c(=O)[nH]c(=O)c32)o1 (stereo not drawn),10,,,,15,12,14,17,10,18
Cc1ccc(C2C(C#N)=C(N)OC3=C2C(=O)CC(C)(C)C3)o1 (stereo not drawn),10,,,,15,17,12,15,10,16
CC1(C)CC(=O)C2=C(C1)OC(N)=C(C#N)C2c1cccs1 (stereo not drawn),10,,,,20,20,10,19,10,22
Cc1ccc(C2C(C#N)=C(N)Oc3[nH]c(=O)[nH]c(=O)c32)s1 (stereo not drawn),10,,,,22,16,10,22,12,20
N#CC1=C(N)Oc2[nH]c(=O)[nH]c(=O)c2C1c1ccco1 (stereo not drawn),10,inactive,inactive,inactive,14,12,14,16,10,18
N#CC1=C(N)Oc2[nH]c(=O)[nH]c(=O)c2C1c1cccs1 (stereo not drawn),10,,,,18,15,12,20,12,22
Cc1ccsc1C1C(C#N)=C(N)OC2=C1C(=O)CC(C)(C)C2 (stereo not drawn),10,,,,22,21,12,20,10,19
CC1(C)CC(=O)C2=C(C1)OC(N)=C(C#N)C2c1ccc[nH]1 (stereo not drawn),10,,,,20,20,12,19,10,22
Cc1ccc(C2C(C#N)=C(N)OC3=C2C(=O)CC(C)(C)C3)s1 (stereo not drawn),10,,,,22,22,10,21,10,19
COc1cccc2c1C(=O)c1c(O)c3c(c(O)c1C2=O)C[C@@](O)(C(=O)CO)C[C@@H]3O[C@H]1C[C@H](N)[C@H](O)[C@H](C)O1,,Active,Active,Active,,,,,,
